Laboratory results published in patent publication US20190125745A1, “TREATMENT AND DIAGNOSIS OF CANCER” (Rgenix, Inc., priority 2014, published 2019).
Counter-ions that a name gives are not always drawn.

Columns and labels:
Format in all cases: in vivo
[1] = tested on: SK-Mel-2 human melanoma cells; experiment: Subcutaneous SK-Mel-2 tumor growth in immunocompromised mice; settings: oral
Experimental: (§1) FIG. 4. Therapeutic LXR Activation Inhibits Melanoma Tumor Growth. […] Representative tumor images shown correspond to tumors extracted at the final day (d12). n=10-18 (A), 8-10 (B). (C-E) Primary tumor growth by 1×10^6 MeWo (C), […] SK-Mel-334.2 (D), and 2×10^6 SK-Mel-2 (E) human melanoma cells subcutaneously injected into immunocompromised mice. […] Tumor images shown correspond to last day of measurements. n=6-34 (C), 8 (D), 5 (E). (F) 5×10^4 B16F10 cells were injected subcutaneously into C57BL/6-WT mice. Upon tumor growth to 150 mm^3, mice were fed continuously with a control chow or a chow containing GW3965 (150 mg/kg), and tumor growth was measured daily. n=6-13. […] Tumor volume was calculated as (small diameter)^2×(large diameter)/2. […] Scale bars, 5 mm (A-D), 50 μm (J, K), 25 μm (L).

[2] = tested on: MeWo human melanoma cells; experiment: Tail-vein lung metastatic colonization by MeWo cells in NOD Scid mice; settings: MeWo cells pre-treated 1 μM, 48 hours
Experimental: FIG. 6. LXR Agonism Suppresses Melanoma Metastasis to the Lung and Brain. (A) MeWo cells were pre-treated with DMSO or GW3965 (1 μM) for 48 hours and 4×10^4 cells were intravenously injected via the tail-vein into NOD Scid mice. Lung colonization was monitored by weekly bioluminescence imaging. Representative H&E-stained lungs correspond to the final day (d70) are shown. n=4-5. (B-C) Bioluminescence imaging of lung metastasis by 4×10^4 MeWo cells intravenously injected into NOD Scid mice that were fed a control chow or a chow containing GW3965 (20 mg/kg) or T0901317 (20 mg/kg) starting 10 days prior to cancer cell injection. Representative H&E-stained lungs correspond to final imaging day n=5-6. […] (H) Ex-vivo lung photon flux, determined by bioluminescence imaging, in NOD Scid mice that were administered a control chow or a chow containing GW3965 (100 mg/kg) for 1 month following the excision of size-matched (˜300-mm^3 in volume) subcutaneous melanoma tumors formed by 1×10^6 MeWo melanoma cells. […] Following initiation of metastases, detected by bioluminescence imaging on d42, mice were administered a control diet or a GW3965 diet (100 mg/kg) as indicated, and lung colonization progression was measured weekly. n=6. […]

[3] = tested on: MeWo human melanoma cells; experiment: Subcutaneous MeWo tumor growth in immunocompromised mice; settings: oral
Experimental: as §1

In the case of `O=C(O)Cc1cccc(OCCCN(Cc2cccc(C(F)(F)F)c2Cl)CC(c2ccccc2)c2ccccc2)c1` [GW3965 108, 3-[3-[N-(2-Chloro-3-trifluoromethylbenzyl)-(2,2-diphenylethyl)amino]propyloxy] phenylacetic acid hydrochloride], the “inhibition of tumor growth, SK-Mel-2” value [1] is reported as 49%, the “reduction in metastatic colonization capacity after pre-treatment of cells” value [2] is reported as “more than 50 fold” and the “inhibition of tumor growth, MeWo” value [3] is reported as 70%.
